Results from patent US7781446B2, “Use of CCI-779 as an antineoplastic agent” (Wyeth LLC, priority 2000, dated 2010).

Experiments:
[1] = system: HTB-44 human renal tumor cells; assay: Human renal tumor cell xenograft in nude mice; format: in vivo, Balb/c nu/nu mice; details: HTB-44 xenograft; for Tumor Mass / % T/C (Treated/Control × 100): 25 mg/kg oral
Procedure: (§1) In vivo test procedure: Female Balb/c nu/nu mice were obtained from Charles River Labs, Wilmington, Del., at 6-8 weeks of age. Mice (n=10/group) were injected sc with 5×10^6 cells resuspended in a 50% solution of Matrigel (BD Biosciences) and tumors allowed to develop. When tumor size reached 100 mg, mice were treated orally with CCI-779 at 25 mg/kg. CCI-779 was dosed for 5 consecutive days with repeated 14 day cycles throughout the duration of the experiment. The formulation used for CCI-779 was a 50% ethanol, 49% phosal, 1% tween 80 vehicle for resuspending CCI-779, where the stock was resuspended into a 1:10 dilution of the vehicle prior to dosing. Tumor growth was evaluated using a vernier caliper and volume (l×w×h) was converted to mass using the formula: 1×w^2/2.
(§2) The effect of CCI-779 in two human renal lines (HTB-44 and CRL-1161) was evaluated in vivo by engrafting tumor cells on the flanks of nude mice. Once tumors were established at a size of about 100 mg, mice were treated with CCI-779 or a vehicle control.

[2] = system: CRL-1161 human renal tumor cells; assay: Human renal tumor cell xenograft in nude mice; format: in vivo, Balb/c nu/nu mice; details: CRL-1161 xenograft; for Tumor Mass / % T/C (Treated/Control × 100): 25 mg/kg oral
Procedure: as §1, §2

[3] = system: advanced cancer (solid tumors) refractory to standard therapy; assay: Phase I clinical trial, 30 minute i.v. infusion once weekly; format: in vivo, human; details: for number of partial responses: weekly dosage schedule
Procedure: (§3) Two single agent (CCI-779) Phase I clinical trials have been conducted. In the first study, CCI-779 was administered as a 30 minute i.v. infusion daily for 5 days, every two to three weeks. In the second study, CCI-779 was administered as a 30 minute i.v. infusion, once weekly. Both trials were open label, ascending dose, single-arm, multicenter studies. Patients were allowed to continue treatment as long as the CCI-779 was tolerated and there was no evidence of obvious disease progression. The following eligibility criteria were used:
(§4) Inclusion Criteria • 1. Patients with a histologic diagnosis of advanced cancer (solid tumors and, in the first study, lymphomas) who are refractory to standard therapy or for whom standard therapy is not appropriate. • 2. Measurable or evaluable disease. • 3. At least 3 weeks since prior chemotherapy and/or radiation therapy (6 weeks since nitrosoureas or mitomycin C). • 4. At least 4 weeks since any other investigational agent. • 5. Age at least 18 years old. • 6. Adequate bone marrow, renal, and hepatic function. • 7. Serum cholesterol<350 mg/dL and triglycerides […]. • 8. ECOG performance status 0-2. • 9. Life expectancy of at least 3 months. • 10. Signed, dated, witnessed written informed consent.
(§5) A total of 63 patients and 24 patients were enrolled in first and second studies, respectively. Dose levels ranged from 0.75-24 mg/m^2 and 7.5-220 mg/m^2, with the daily×5 every 2 weeks and weekly schedules, respectively.

[4] = system: advanced cancer (solid tumors and lymphomas) refractory to standard therapy; assay: Phase I clinical trial, 30 minute i.v. infusion daily for 5 days every two to three weeks; format: in vivo, human
Procedure: as §3, §4, §5

[5] = system: Renal tumor line SN12-C; assay: In vitro growth of human renal tumor cells, 3H-thymidine uptake; format: cell-based; details: 48 hours with drug
Procedure: (§6) In vitro test procedure: Renal tumor lines HTB-44 and CRL-1161 were obtained from the American Tissue Culture Collection (ATCC), Bethesda, Md. SN12-C line was obtained from Dr. J. Fidler, M. D. Anderson Hospital, Houston, Tex. Cells were plated in MEM (Gibco) supplemented with 2 mM glutamine, 1 mM sodium pyruvate, 5 ml penicillin-streptomycin solution, 1 mM non-essential amino acid solution, 10% fetal bovine solution. Cells (5×10^3) were plated in 96 well plates with a final volume of […] and incubated for 24 hours at 37° C. Log dilutions of CCI-779 beginning at 100 μg/ml were then added to the cultures for 48 hours. Over the last 5 hours, cells were pulsed with 1 μci ^3H-thymidine (New England Nuclear, 6.7 ci/m Mol). Cells were then harvested and the degree of thymidine uptake determined by liquid scintillation spectrometry. The IC50 was determined as the concentration that produced 50% of the maximum uptake of thymidine in control untreated cells.
(§7) Human renal cell tumors were cultured in vitro in the presence or absence of CCI-779 for 3 days and the effect on growth determined by ^3H-thymidine incorporation of control versus treated cells.

[6] = system: Renal tumor line CRL-1161; assay: as above; format: cell-based; details: 48 hours with drug
Procedure: as §6, §7

[7] = system: Renal tumor line HTB-44; assay: as above; format: cell-based; details: 48 hours with drug
Procedure: as §6, §7

[8] = 5 consecutive days, 14 day cycles, day 0
[9] = 25 mg/kg, versus vehicle control
[10] = patients having renal cancer, weekly schedule
[11] = patients having soft tissue sarcoma, daily×5 dosage schedule
[12] = renal cancer patients, daily×5 schedule
[13] = Homo sapiens, read-out: CCI-779 IC50 (50% growth inhibitory concentration)

CCI-779 IC50 (50% growth inhibitory concentration) [5]: low nM range | IC50 ([5]; Homo sapiens, SN12C, read-out: CCI-779 IC50 (50% growth inhibitory concentration)): 5.5 nM | CCI-779 IC50 (50% growth inhibitory concentration) [6]: low nM range | IC50 [6, 13]: 2 nM | CCI-779 IC50 (50% growth inhibitory concentration) [7]: low nM range | IC50 [7, 13]: 5 nM
SMILES: CO[C@H]1C[C@@H]2CC[C@@H](C)[C@@](O)(O2)C(=O)C(=O)N2CCCC[C@H]2C(=O)O[C@H]([C@H](C)C[C@@H]2CC[C@@H](OC(=O)C(C)(CO)CO)[C@H](OC)C2)CC(=O)[C@H](C)/C=C(\C)[C@@H](O)[C@@H](OC)C(=O)[C@H](C)C[C@H](C)/C=C/C=C/C=C/1C [CCI-779, rapamycin 42-ester with 3-hydroxy-2-(hydroxymethyl)-2-methylpropionic acid]
Tumor Mass [1, 8]: 290 ± 15 mg | % T/C (Treated/Control × 100) ([1]; day 0): 101% | % T/C (Treated/Control × 100) ([1]; day 7): 71% | Tumor Mass ([1]; day 7): 156 ± 13 mg | % T/C (Treated/Control × 100) ([1]; day 21): 41% | Tumor Mass ([1]; day 21): 252 ± 48 mg | % T/C (Treated/Control × 100) ([1]; day 35): 41% | Tumor Mass ([1]; day 35): 453 ± 85 mg | % T/C (Treated/Control × 100) ([1]; day 49): 48% | Tumor Mass ([1]; day 49): 980 ± 155 mg | % T/C (Treated/Control × 100) ([1]; day 55): 44% | Tumor Mass ([1]; day 55): 1050 ± 183 mg | inhibition of tumor cell growth in the mice [1, 9]: significant inhibition of tumor cell growth | Tumor Mass [2, 8]: 272 ± 14 mg | % T/C (Treated/Control × 100) ([2]; day 0): 100% | % T/C (Treated/Control × 100) ([2]; day 7): 62% | Tumor Mass ([2]; day 7): 219 ± 16 mg | % T/C (Treated/Control × 100) ([2]; day 21): 60% | Tumor Mass ([2]; day 21): 226 ± 17 mg | % T/C (Treated/Control × 100) ([2]; day 35): 42% | Tumor Mass ([2]; day 35): 200 ± 21 mg | % T/C (Treated/Control × 100) ([2]; day 49): 42% | Tumor Mass ([2]; day 49): 229 ± 28 mg | % T/C (Treated/Control × 100) ([2]; day 55): 53% | Tumor Mass ([2]; day 55): 268 ± 30 mg | inhibition of tumor cell growth in the mice [2, 9]: significant inhibition of tumor cell growth | number of minor responses (≧25% but<50% reduction in tumor size) [3, 10]: 2 | number of partial responses (≧50% reduction in tumor size) [3, 10]: 1 | number of partial responses ([3]; patients with breast cancer): one | number of partial responses ([3]; patients with neuroendocrine tumor of the lung): one | number of minor responses ([4]; patients having cervical cancer, daily×5 dosage schedule): one | number of partial responses ([4]; patients having non-small cell lung cancer, daily×5 dosage schedule): one | number of minor responses [4, 11]: 2 | number of possible partial responses [4, 11]: 1 | number of stable disease [4, 11]: 1 | number of unconfirmed minor responses ([4]; patients having uterine cancer, daily×5 dosage schedule): one | duration of stable disease [4, 12]: approximately 5 months | number of minor responses [4, 12]: 1 | number of stable disease (<25% increase to <25% reduction in tumor size) [4, 12]: 1 | number of unconfirmed minor responses [4, 12]: 1
